{
  "source": "patent US12023391B2",
  "about": "“Alpha(v)beta(6) integrin-binding peptides and methods of use thereof” (The Regents of the University of California, priority 2016, dated 2024)",
  "key": {"αvβ6 integrin": {"target": "αvβ6 integrin (Homo sapiens, UniProt P06756+P18564)", "assay": "Competitive binding ELISA with purified integrin, αvβ6", "description": "(§1) Small aliquots (50 mg, ˜150,000 beads) were incubated with a mixture of red fluorescent DX3 ITGβ6 mCherry (αvβ6-positive) and green fluorescent DX3 EmGFP (αvβ6-negative) cells for 3 hours and evaluated under a fluorescent microscope. Beads that were covered only by red (i.e. αvβ6-positive) cells were isolated; these beads were subsequently characterized by Edman sequencing. Following synthesis of the identified peptides, competitive binding ELISA was performed with purified integrin to evaluate binding specificities for the target αvβ6 integrin as well as closely related αv-integrins.\n(§2) Anti-αv capture antibody P2W7 (5 μg/mL, Novus Biologicals) was coated onto Nunc MaxiSorp 96-well plates, followed by blocking with BSA overnight at 4° C. All wells were washed 3 times with PBS, followed by plating of purified integrin (3 μg/mL) and incubating at room temperature in a humid chamber for 1 hour. Peptide solutions, titrated (1 μM-1 pM for αvβ6 integrin and 100 μM-100 pM for αvβ3 integrin) and mixed with biotinylated natural ligand, were added to the integrin-coated wells in triplicate. […] Captured biotinylated natural ligand was detected with ExtrAvidin-HRP and developed with TMB substrate. Half-maximal inhibitory concentration (IC50) of peptides was determined fitting to sigmoidal dose-response model in GraphPad Prism 6.0 (FIG. 5A)."}, "αvβ3 integrin": {"target": "αvβ3 integrin (Homo sapiens, UniProt P05106+P06756)", "assay": "Competitive binding ELISA with purified integrin, αvβ3", "description": "as §1, with “As described further below, a 9-mer XXDLXXLXK(FB) (SEQ ID NO: 23) peptide library was assembled on TentaGel resin (1 g, ˜3,000,000 beads) using standard Fmoc chemistry. Small” for “Small”\nas §2, with “hour.” for “hour. Peptide solutions, titrated (1 μM-1 pM for αvβ6 integrin and 100 μM-100 pM for αvβ3 integrin) and mixed with biotinylated natural ligand, were added to the integrin-coated wells in triplicate.”, “5A). […]” for “5A).”"}, "[1]": {"target": "(Homo sapiens, UniProt P06756+P18084)", "assay": "Competitive binding ELISA with purified integrin, αvβ4 (so in the source)", "description": "as §1\nAnti-αv capture antibody P2W7 (5 μg/mL, Novus Biologicals) was coated onto Nunc MaxiSorp 96-well plates, followed by blocking with BSA overnight at 4° C. All wells were washed 3 times with PBS, followed by plating of purified integrin (3 μg/mL) and incubating at room temperature in a humid chamber for 1 hour. Peptide solutions, titrated (1 μM-1 pM for αvβ6 integrin and 100 μM-100 pM for αvβ3 integrin) and mixed with biotinylated natural ligand, were added to the integrin-coated wells in triplicate. After incubating for an hour at room temperature, the plate was washed 3 times with wash buffer. Captured biotinylated natural ligand was detected with ExtrAvidin-HRP and developed with TMB substrate. Half-maximal inhibitory concentration (IC50) of peptides was determined fitting to sigmoidal dose-response model in GraphPad Prism 6.0 (FIG. 5A)."}, "[2]": {"assay": "Log P of radiolabeled peptide", "format": "physicochemical", "details": "peptide radiolabeled with [18F]fluorobenzoic acid", "description": "(§3) Based on selectivity profiles of all peptides, the ST1-62 peptide was selected to move forward for radiolabeling with [^18F]fluorobenzoic acid for log P, serum stability, and cell binding studies. Log P=−1.09±0.02 (FIG. 6B). Serum stability of the peptide was determined at 1 hour after incubating with mouse serum at 37° C. (FIG. 7A)."}, "αvβ1": {"target": "αvβ1 (Homo sapiens, UniProt P05556+P06756)", "assay": "Competitive binding ELISA with purified integrin, αvβ1", "description": "as §1, with “As described further below, a 9-mer XXDLXXLXK(FB) (SEQ ID NO: 23) peptide library was assembled on TentaGel resin (1 g, ˜3,000,000 beads) using standard Fmoc chemistry. Small” for “Small”\nas §2, with “hour.” for “hour. Peptide solutions, titrated (1 μM-1 pM for αvβ6 integrin and 100 μM-100 pM for αvβ3 integrin) and mixed with biotinylated natural ligand, were added to the integrin-coated wells in triplicate.”, “5A). […]” for “5A).”"}, "[3]": {"assay": "Serum stability in mouse serum, HPLC analysis", "format": "in vitro ADME", "details": "[18F]-radiolabeled peptide, 37° C., an hour", "description": "Serum stability study analysis of Peptide 1 (ST1-62) (SEQ ID NO:2) was performed by first incubating the radiolabeled peptide ([^18F]; 25 μCi) with commercially available mouse serum at 37° C. for an hour. The radiotracer was removed from serum by precipitating out the protein with cold EtOH and then injected into a HPLC for analysis.\nas §3"}, "[4]": {"test_system": "DX3puroβ6 (αvβ6-positive) and DX3 puro (αvβ6-negative) cells", "assay": "Flow cytometry binding to DX3puroβ6 and DX3 puro cells", "format": "cell-based, human", "details": "peptide concentrations of 10 μM and 100 μM", "text": "FIGS. 8A and 8B show binding of a peptide labeled with FAM-X ([…]-FAM-X; SEQ ID NO:15) to DX3puroβ6 and DX3 puro cells. […] 150,000 cells were used in each experiment. […] These studies used 75,000, 150,000, or 300,000 cells per experiment. The control experiment used 300,000 unstained cells.\nFlow cytometry was used to assay the binding of a peptide labeled with FAM-X ([…]-FAM-X; SEQ ID NO:15) to DX3puroβ6 and DX3 puro cells."}},
  "note": "Read-outs that look alike come from different tables or passages of the source. Residues, ends and D or L forms follow the SMILES beside them. *: point of attachment. Benzoyl(4-F) = O=C(c1ccc(F)cc1)*",
  "data": [
    {"compound": "CN[C@H](C(=O)NCC(=O)N[C@@H](CC(=O)O)C(=O)N[C@@H](CC(C)C)C(=O)N[C@H](C(=O)N[C@@H](Cc1ccc(O)cc1)C(=O)N[C@@H](CC(C)C)C(=O)N[C@@H](CCCCN)C(=O)N[C@@H](CCCCNC(=O)c1ccc(F)cc1)C(N)=O)[C@@H](C)O)C(C)C", "values": [
      {"measurement": "IC50", "setting": "αvβ6 integrin", "value": 0.5, "unit": "µM"}
    ]},
    {"compound": "CC(C)C[C@H](NC(=O)[C@H](CC(=O)O)NC(=O)CNC(=O)[C@@H](N)CCCNC(=N)N)C(=O)N[C@@H](C)C(=O)N[C@@H](CC(=O)O)C(=O)N[C@@H](CC(C)C)C(=O)N[C@@H](CCCNC(=N)N)C(=O)N[C@@H](CCCCNC(=O)c1ccc(F)cc1)C(N)=O", "note": "[ST1-60] (H-RGDLADLRK(Benzoyl(4-F))-NH2)", "values": [
      {"measurement": "IC50", "setting": "αvβ3 integrin", "value": 0.5, "unit": "µM"},
      {"measurement": "IC50", "setting": "[1]; competitive binding ELISA, read-out: IC50 αvβ4", "value": "> 100", "unit": "µM"}
    ]},
    {"compound": "CC(C)C[C@H](NC(=O)[C@H](CCC(=O)O)NC(=O)[C@H](CCCNC(=N)N)NC(=O)[C@H](CC(C)C)NC(=O)[C@H](CC(=O)O)NC(=O)CNC(=O)[C@@H](N)CCCNC(=N)N)C(=O)N[C@@H](C)C(=O)N[C@@H](CCCCNC(=O)c1ccc(F)cc1)C(N)=O", "note": "[ST1-61] (H-RGDLRELAK(Benzoyl(4-F))-NH2)", "values": [
      {"measurement": "IC50", "setting": "[1]", "value": "> 100", "unit": "µM"}
    ]},
    {"compound": "CSCC[C@H](NC(=O)[C@H](CC(C)C)NC(=O)[C@H](CC(=O)O)NC(=O)CNC(=O)[C@@H](N)CCCNC(=N)N)C(=O)N[C@@H](CCCCN)C(=O)N[C@@H](CC(C)C)C(=O)N[C@@H](C)C(=O)N[C@@H](CCCCNC(=O)c1ccc(F)cc1)C(N)=O", "note": "[ST1-59] (H-RGDLMKLAK(Benzoyl(4-F))-NH2)", "values": [
      {"measurement": "IC50", "setting": "[1]", "value": "> 100", "unit": "µM"}
    ]},
    {"compound": "CC(C)C[C@H](NC(=O)[C@H](Cc1ccc(O)cc1)NC(=O)[C@@H](NC(=O)[C@H](CC(C)C)NC(=O)[C@H](CC(=O)O)NC(=O)CNC(=O)[C@@H](N)C(C)C)[C@@H](C)O)C(=O)N[C@@H](CCCCN)C(=O)N[C@@H](CCCCNC(=O)c1ccc(F)cc1)C(N)=O", "note": "[ST1-62]", "values": [
      {"measurement": "logP", "setting": "[2]", "value": "-1.09 ± 0.02"},
      {"measurement": "IC50", "setting": "[1]", "value": "> 100", "unit": "µM"},
      {"measurement": "IC50", "setting": "αvβ1", "value": "> 100", "unit": "µM"},
      {"measurement": "Serum stability", "setting": "[3]", "value": "cleaved by proteases within an hour"}
    ]},
    {"compound": "VGDLTYLKK-FAM-X (FAM label; C-term FAM-X, fluorescein dye/label) [Fluorescent labeled peptide]", "values": [
      {"measurement": "Binding to αvβ6-positive versus αvβ6-negative cells", "setting": "[4]", "value": "increased binding to the αvβ6-positive cells than the αvβ6-negative cells"}
    ]}
  ]
}
